Values after ≈ are worked out from the molar mass of the structure shown.
Legend:
Type in all cases: cell-based
[1] = test system: Pseudomonas aeruginosa PAM 1020; experiment: MIC broth microdilution, P. aeruginosa PAM 1020 (wild type); details: P. aeruginosa PAM 1020
[2] = test system: Pseudomonas aeruginosa PAM 1154; experiment: MIC broth microdilution, P. aeruginosa PAM 1154 (OprM::Hg); details: P. aeruginosa PAM 1154 OprM::Hg
[3] = test system: Pseudomonas aeruginosa PAM 1135; experiment: MIC broth microdilution, P. aeruginosa PAM 1135 (high level UPA resistance); details: P. aeruginosa PAM 1135 UPA1^r
[4] = test system: Pseudomonas aeruginosa PAM 1323; experiment: MIC broth microdilution, P. aeruginosa PAM 1323 (medium level UPA resistance)
[5] = test system: Escherichia Coli MC 4100; experiment: MIC broth microdilution, E. coli MC 4100 (wild type); details: E. coli MC 4100
[6] = test system: Escherichia Coli MC 4100 AcrAB; experiment: MIC broth microdilution, E. coli MC 4100 AcrAB (ΔAcrAB); details: E. coli AcrAB
[7] = test system: Escherichia Coli MC 4100 AcrAB UPA3r; experiment: MIC broth microdilution, E. coli MC 4100 AcrAB UPA3r (ΔAcrAB, UPA resistant); details: E. coli AcrAB UPA3^r
[8] = test system: Staphylococcus aureus ATCC 29213; experiment: MIC broth microdilution, S. aureus ATCC 29213 (wild type); details: S. aureus ATCC 29213
[9] = test system: Staphylococcus aureus 8325-4; experiment: MIC broth microdilution, S. aureus 8325-4 (wild type); details: S. aureus 8325-4
[10] = test system: Pasteurella multocida pm002; experiment: MIC broth microdilution, P. multocida pm002 (wild type)

Molecule | MIC (μg/ml) Broth microdilution [1] [µg/mL] | MIC (μg/ml) Broth microdilution [2] [µg/mL] | MIC (μg/ml) Broth microdilution [3] [µg/mL] | MIC (μg/ml) Broth microdilution [4] [µg/mL] | MIC (μg/ml) Broth microdilution [5] [µg/mL] | MIC (μg/ml) Broth microdilution [6] [µg/mL] | MIC (μg/ml) Broth microdilution [7] [µg/mL] | MIC (μg/ml) Broth microdilution [8] [µg/mL] | MIC (μg/ml) Broth microdilution [9] [µg/mL] | MIC (μg/ml) Broth microdilution [10] [µg/mL]
CC(C)CC(N)C(=O)N(C)C(C)C(NC(=O)C(Cc1ccc(F)cc1)NC(=O)NC(Cc1ccc(O)cc1)C(=O)O)C(=O)NCC1CC(O)C(n2ccc(=O)[nH]c2=O)O1 [Compound 107, 1-[5′[(2S,3S)-N^2-[N-[[(1S)-1-Carboxy-4-hydroxyphenethyl]carbamoyl]-L-4-fluorophenylalanyl]-N^3-L-leucyl-N^3-methyl-2,3-diaminobutyramido]-3′,5′-dideoxy-α-L-arabinofuranosyl]uracil] | 256 (≈ 310 µM) | 64 (≈ 77.4 µM) | >512 | >512 | 16 (≈ 19.3 µM) | <1 | 8 (≈ 9.67 µM) | >512 | >512 | >512
CSCCC(NC(=O)NC(Cc1c[nH]c2ccccc12)C(=O)O)C(=O)NC(C(=O)NCC1CC(O)C(n2ccc(=O)[nH]c2=O)O1)C(C)N(C)C(=O)C(N)Cc1ccccc1 [Compound 111, 1-[5′-[(2S,3S)-N^2-[N-([(1S)-1-Carboxy-2-indol-3-ylethyl]carbamoyl]-L-methionyl]-N^3-L-phenylalanyl-N^3-methyl-2,3-diaminobutyramido]-3′,5′-dideoxy-α-L-arabinofuranosyl]uracil] | 128 (≈ 151 µM) | 16 (≈ 18.8 µM) | 256 (≈ 301 µM) | 256 (≈ 301 µM) | 512 (≈ 602 µM) | 8 (≈ 9.41 µM) | 512 (≈ 602 µM) | >512 | >512 | 512 (≈ 602 µM)
C[C@H](N)C(=O)N(C)[C@@H](C)[C@H](NC(=O)[C@H](Cc1ccccc1F)NC(=O)N[C@@H](Cc1c[nH]c2ccccc12)C(=O)O)C(=O)NC[C@H]1C[C@@H](O)[C@H](n2ccc(=O)[nH]c2=O)O1 [Compound 139, 1-[5′-[(2S,3S)-N^3-L-Alanyl-N^2-[N-[[(1S)-1-carboxy-2-indol-3-ylethyl]carbamoyl]-L-2-fluorophenylalanyl]-N^3-methyl-2,3-diaminobutyramido]-3′,5′-dideoxy-α-L-arabinofuranosyl]uracil] | 64 (≈ 79.2 µM) | 8 (≈ 9.9 µM) | >512 | 512 (≈ 634 µM) | >512 | 2 (≈ 2.48 µM) | 64 (≈ 79.2 µM) | 256 (≈ 317 µM) | 256 (≈ 317 µM) | 256 (≈ 317 µM)
CC(C(NC(=O)C(Cc1ccc(F)cc1)NC(=O)NC(Cc1ccc(O)cc1)C(=O)O)C(=O)NCC1CC(O)C(n2ccc(=O)[nH]c2=O)O1)N(C)C(=O)c1cccc(N)c1 [Compound 131, 1-[5′-[(2S,3S)-N^3-3-Aminobenzoyl-N^2-[N-[[(1S)-1-carboxy-4-hydroxyphenethyl]carbamoyl]-L-4-fluorophenylalanyl]-N^3-methyl-2,3-diaminobutyramido]-3′,5′-dideoxy-α-Larabinofuranosyl]uracil] | 512 (≈ 615 µM) | 512 (≈ 615 µM) | >512 | >512 | >512 | 16 (≈ 19.2 µM) | 512 (≈ 615 µM) | 512 (≈ 615 µM) | >512 | >512
CC(C(NC(=O)C(Cc1ccc(F)cc1)NC(=O)NC(Cc1c[nH]c2ccccc12)C(=O)O)C(=O)NCC1CC(O)C(n2ccc(=O)[nH]c2=O)O1)N(C)C(=O)CN [Compound 116, 1-[5′-[(2S,3S)-N^2-[N-[[(1S)-1-Carboxy-2-indol-3-ylethyl)carbamoyl]-L-4-fluorophenylalanyl]-N^3-glycyl-N^3-methyl-3-diaminobutyramido]-3′,5′-dideoxy-α-L-arabinofuranosyl]uracil] | 32 (≈ 40.3 µM) | 8 (≈ 10.1 µM) | >512 | 512 (≈ 645 µM) | 256 (≈ 322 µM) | <1 | 16 (≈ 20.2 µM) | 512 (≈ 645 µM) | 256 (≈ 322 µM) | 128 (≈ 161 µM)
CNC(C)C(NC(=O)C(Cc1ccc(F)cc1)NC(=O)NC(Cc1ccc(O)cc1)C(=O)O)C(=O)NCC1CC(O)C(n2ccc(=O)[nH]c2=O)O1 [Compound 127, 1-[5′-[(2S,3S)-N^2-[N-[[(1S)-1-carboxy-4-hydroxyphenethyl)carbamoyl]-L-4-fluorophenylalanyl]-N^3-methyl-2,3-diaminobutyramidol-3′,5′-dideoxy-α-L-arabinofuranosyl]uracil] | >512 | 512 (≈ 717 µM) | >512 | >512 | >512 | 4 (≈ 5.6 µM) | 32 (≈ 44.8 µM) | >512 | >512 | >512
CN[C@@H](C)[C@H](NC(=O)[C@H](Cc1ccccc1)NC(=O)N[C@@H](Cc1c[nH]c2ccccc12)C(=O)O)C(=O)NC[C@H]1C[C@@H](O)[C@H](n2ccc(=O)[nH]c2=O)O1 [Compound 151, 1-[5′-[(2S,3S)-N^2-[N-[[(1S)-1-Carboxy-2-indol-3-ylethyl]carbamoyl]-L-phenylalanyl]-N^3-methyl-2,3-diaminobutyramido]-3′,5′-dideoxy-α-L-arabinofuranosyl]uracil] | 256 (≈ 356 µM) | 32 (≈ 44.5 µM) | 256 (≈ 356 µM) | 256 (≈ 356 µM) | 512 (≈ 712 µM) | 4 (≈ 5.57 µM) | 128 (≈ 178 µM) | >512 | >512 | 256 (≈ 356 µM)
CSCCC(NC(=O)NC(Cc1c[nH]c2ccccc12)C(=O)O)C(=O)NC(C(=O)NCC1CC(O)C(n2ccc(=O)[nH]c2=O)O1)C(C)N(C)C(=O)CN [Compound 112, 1-[5′-[(2S,3S)-N^2-[N-[[(1S)-1-Carboxy-2-indol-3-ylethyl]carbamoyl]-L-methionyl]-N^3-glycyl-N^3-methyl-2,3-diaminobutyramido]-3′,5′-dideoxy-α-L-arabinofuranosyl]uracil] | 16 (≈ 21.1 µM) | 4 (≈ 5.26 µM) | >512 | 256 (≈ 337 µM) | >512 | 2 (≈ 2.63 µM) | 16 (≈ 21.1 µM) | >512 | >512 | 128 (≈ 168 µM)
1-[5′-[(2S,3S)-N^3-L-Alanyl-N^2-[N-([(1S)-1-carboxy-phenethyl]carbamoyl]-L-leucinyl]-N^3-methyl-2,3-diaminobutyramido]-3′,5′-dideoxy-α-L-arabinofuranosyl]uracil [Compound 166] | >512 | >512 | >512 | >512 | >512 | 16 | 256 | >512 | >512 | 512
